Test results as given in patent publication US12628822B2, “Plant pathogen defence elicitors” (UNIVERSITÉ LIBRE DE BRUXELLES, priority 2020, dated 2026).

Tests used:
defence marker genes = experiment: qPCR analysis of defence marker gene expression in Arabidopsis plants; assay type: in vivo, Arabidopsis thaliana
Description: Arabidopsis thaliana Columbia (Col-0) was the accession used for all the experiments. Seeds were surface sterilised by subsequent treatment with 50% v/v Et-OH and 3% bleach solution in agitation for 5 and 10 min, respectively. Seeds were then washed three times with distilled water and stratified for 3 days at 4° C. in the dark. For qPCR analysis and microarray experiments, seeds were sown on square petri dishes ([…]) containing half strength Murashige and Skoog (MS) salt, 2.5 mM MES, 1% w/v sucrose and 0.8% w/v plant agar. The experiments were performed using 14-day old seedlings grown vertically in a controlled growth cabinet with short day conditions ( 8/16 h light/dark; 100 μmol photons m^−2 s^−1) at 22±0.5° C. Treatments were performed by applying 40-50 μl of fresh-prepared and filtered solution per seedling.
For RNA extraction, 14-day old leaves from ten independent plants were collected at the indicated time point after treatments, pooled and frozen in liquid nitrogen. Total RNA was extracted from 100 mg of ground-frozen samples using the Maxwell® LEV Plant RNA Kit (Promega, Madison, WI, USA) and the RNA integrity was determined through NanoDrop 2000 UV-Vis Spectrophotometer (Thermo Scientific, Loughborough, UK). First-strand cDNA was synthesized by using SOLIScript® RT cDNA synthesis MIX (Solis Biodyne, Tartu, Estonia) and qPCRs were performed using SYBR® Selected MasterMix 2× (Applied Biosystems, Thermo Fisher Scientific, Waltham, USA), following the manufacturers' protocols. The cycling conditions consisted of an initial 7 min at 95° C., followed by 40 two-step cycles at 95° C. for 5 s and at 60° C. for 30 s. Melting curve analysis was performed after cycle completion to validate amplicon identity. Relative expression levels were calculated following the standard curve-based method (Larionov et al. A standard curve based method for relative real time PCR data processing, BMC Bioinformatics. 2005, vol. 6, 1) by using ACTIN as reference. Gene-specific primers used in this work are indicated below. […]

Botrytis cinerea = experiment: B. cinerea inoculation of Arabidopsis leaves: necrotic lesion area and in planta growth; assay type: in vivo
Description: For “in planta” growth test of Botrytis cinerea and histochemical assays, five-week-old Col-0 plants were germinated in soil and grown in controlled chamber ( 8/16 h light/dark at 22/20° C. day/night) with a relative humidity equal to 70%. Treatments were performed by applying 40-50 μl of fresh-prepared and filtered solution per leaf.
Botrytis cinerea (strain B05.10, from the INRA/IJPB Institute, Versailles, France) was grown on potato dextrose agar medium at 21° C., with a photoperiod of 12 h light/12 h dark. Leaves were inoculated with two 5-μL droplets of B. cinerea spores (5×10^5 spores ml-1). At the indicated time points, genomic DNA from whole leaves was extracted following the modified protocol of Edwards et al. (A simple and rapid method for the preparation of plant genomic DNA for PCR analysis. Nucl. Acid. Res. 1991, vol. 19, 13491991) and fungal biomass was quantified as described by Gachon and Saindrenan (Real-time PCR monitoring of fungal development in Arabidopsis thaliana infected by Alternaria brassicicola and Botrytis cinerea. Plant Physiol Biochem. 2004, vol. 42, 367-371).
Three days after fungus inoculation, the areas of the developing necrotic lesions were analysed by ImageJ software and the B. cinerea “in planta” growth was evaluated through qPCR. […]

oxidative burst = experiment: Oxidative burst detection (DAB, NBT, luminol-based assays); assay type: in vivo, Arabidopsis thaliana
Description: Hydrogen peroxide was assayed in both in vitro-growth and in soil-growth Arabidopsis plants. In situ detection of H2O2 was performed following the protocol described by Daudi and O'Brien (Detection of Hydrogen Peroxide by DAB Staining in Arabidopsis Leaves. Bio Protoc. 2012, vol. 2(18), e263). Briefly, 5-week-old Col-O plants leaves were droplet-treated (40-50 μl drops per leaf) with indicated compounds. At 24 h after treatment four rosette leaves from five independent plants were gently vacuum-infiltrated (5 min) with 1 mg ml^−1 3,3′-diaminobenzidine (DAB) dissolved in 10 mM sodium phosphate buffer and 0.05% v/v Tween 80. The staining reaction was terminated 5 h after DAB infiltration, and leaves were fixed in ethanol:glycerol:acetic acid 3:1:1. Chlorophyll was removed by several washing steps with 70% v/v ethanol and pictures were token with a stereomicroscope (Discovery V8, Zeiss).
Elicitor-induced H2O2 was also detected by luminol-peroxidase-based assay as described by Albert et al. (Chemiluminescence Detection of the Oxidative Burst in Plant Leaf Pieces. Bio-protocol 2015, vol. 5(6), e1423). Briefly, twenty leaves from 10 independent 4-5-week-old Col-0 plants were cut and incubated in ddH2O overnight. Time course luminescence was evaluated using The SpectraMax iD3 Multi-Mode Microplate Reader (Molecular devices, San Jose, CA, USA) with an integration time per well=1000 ms. […]

[1] = vs CTR, same array-hybridised RNA

## OC[C@H]1O[C@@H](O[C@H]2[C@H](O)[C@@H](O)[C@H](O)O[C@@H]2CO)[C@H](O)[C@@H](O)[C@@H]1O [Cellobiose, β-D-glucopyranosyl(1→4)D-glucopyranose]
Defence marker genes; 100 μM, 1 and 24 hours, 14-day old plants
  mRNA accumulation of MPK3/6, WRKY33, PAD3 and PEN3: lower magnitude of expression
Defence marker genes; [1]
  LOX4 (AT1G72520) gene expression, qPCR: 0.69 fold change
  MPK3 (AT3G45640) gene expression, qPCR: 0.02 fold change
  MPK6 (AT2G43790) gene expression, qPCR: 0.55 fold change
  PAD3 (AT3G26830) gene expression, qPCR: −1.06 fold change
  PEN3 (AT1G59870) gene expression, qPCR: 1.07 fold change
  PR1 (AT2G14610) gene expression, qPCR: 1.29 fold change
  WRKY18 (AT4G31800) gene expression, qPCR: 2.60 fold change
  WRKY22 (AT4G01250) gene expression, qPCR: 1.10 fold change
  WRKY33 (AT2G38470) gene expression, qPCR: 1.31 fold change
Defence marker genes; vs mock, same array-hybridised RNA
  IGMT2 (At1G21120) gene expression, qPCR: −1.59 fold change
Botrytis cinerea; 100 μM pre-treatment 24 h before inoculation, three days after inoculation
  reduction of average sizes of necrotic lesions compared with untreated leaves: a little protection
Botrytis cinerea; 100 μM pre-treatment, 3 days after infection
  reduction of B. cinerea in planta growth (fungus biomass, qPCR): slight reduction
Oxidative burst; 14-day old plants
  short-term extracellular H2O2 production (luminol-based assay): no H2O2 production was detected
Oxidative burst; 24 h after treatments, 5-week old plants
  in situ production of H2O2 and O2− (DAB and NBT assays): no measurable production
